# ChEMBL document CHEMBL1201862, “PubChem BioAssay data set” (2004)
# Active and inactive are the calls of the source.
# Key:
# [1] = HGIII-sPLA2 enzyme inhibition potency – biochemical, QFRET, IC50, dose response (AID 743457);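 further: green fluorescence rise as the enzyme cleaves BODIPY PC-A2 in liposomes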
# [2] = target: Cytochrome P450 2D6 (Homo sapiens, UniProt P10635);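 further: CYP2D6 member of a cytochrome P450 panel assay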
# [3] = target: T1, Cytochrome P450 1A2 (Homo sapiens, UniProt P05177);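 further: PubChem cytochrome P450 panel assay, CYP1A2 panel member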
# T1 sequence (P05177 whole entry): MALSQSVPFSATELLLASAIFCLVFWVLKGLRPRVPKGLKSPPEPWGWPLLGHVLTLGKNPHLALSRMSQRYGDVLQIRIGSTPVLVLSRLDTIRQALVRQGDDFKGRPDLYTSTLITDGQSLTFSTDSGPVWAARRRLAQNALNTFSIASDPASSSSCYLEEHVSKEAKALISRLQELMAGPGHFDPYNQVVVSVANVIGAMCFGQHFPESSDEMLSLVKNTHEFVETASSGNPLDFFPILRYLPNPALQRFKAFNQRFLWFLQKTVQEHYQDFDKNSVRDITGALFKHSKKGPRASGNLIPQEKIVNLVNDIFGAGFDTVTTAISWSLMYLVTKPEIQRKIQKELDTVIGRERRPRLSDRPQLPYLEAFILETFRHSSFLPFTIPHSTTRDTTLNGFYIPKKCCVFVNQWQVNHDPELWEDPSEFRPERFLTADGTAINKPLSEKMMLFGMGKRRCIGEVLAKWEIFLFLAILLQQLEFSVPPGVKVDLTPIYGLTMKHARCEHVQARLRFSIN
# [4] = TNFa-induced NF-kB reporter signal decrease – HEK293 LMP1 reporter cells, dry powder, set 2, selectivity assay for EBV LMP1 NF-kB inhibitor project, dose response (AID 624369); assay type: functional
# [5] = OVCAR-3 cell viability loss – plate reader, dry powder samples, PAX8 inhibitor project, dose response (AID 743044); assay type: functional, cell-based
# [6] = CMV-driven luciferase expression suppression in HEK293 – cell-based, luminescence, dry powder, counter-screen for Pax8 inhibitor project, dose response (AID 743020); assay type: functional
# [7] = target: Paired box protein Pax-8 (Homo sapiens, UniProt Q06710); test: PAX8 transcriptional activity inhibition in RMG-I – RMG-I cells, luciferase, cherry-pick, dose response (AID 687027); assay type: functional, cell-based;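 further: luciferase reporter driven by Pax8 target thyroperoxidase promoter measured by SteadyGlo luminescence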
# [8] = NIH3T3 cell viability loss – ATP luminescence, mouse fibroblasts, counter-screen, dose response (AID 2010); assay type: functional, cell-based;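 further: cells exposed to compound for about 90 hours before reading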
# [9] = target: Glucose-6-phosphate 1-dehydrogenase (Homo sapiens, UniProt P11413); test: inhibition of Homo sapiens G6PD, dose series – biochemical, fluorescence, selectivity assay for P. falciparum G6PD inhibitor project, dose response (AID 504792); assay type: functional
# [10] = Trypanosoma cruzi growth suppression in host cells – NIH3T3 host cells, beta-gal luminescence, confirmation (AID 2044); assay type: functional, cell-based;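 further: intracellular parasites grown in NIH/3T3 mouse fibroblasts as host cells; luminescent beta-galactosidase reporter signal from transgenic T. cruzi replicating inside host cells; inhibitors lower the luminescence signal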
# [11] = target: DNA dC->dU-editing enzyme APOBEC-3A (Homo sapiens, UniProt P31941); test: A3A deaminase inhibition for selectivity – biochemical, dose response (AID 504722); assay type: functional
# [12] = target: DNA dC->dU-editing enzyme APOBEC-3G (Homo sapiens, UniProt Q9HC16); test: Dose Response confirmation of small molecule APOBEC3G DNA Deaminase Inhibitors via a fluorescence-based single-stranded DNA deaminase assay. [Related pubchem assays (depositor defined):AID493012, AID493028]; assay type: functional
# [13] = target: Beta Lactamase (Pseudomonas aeruginosa, UniProt Q932Y6); test: BLA reporter interference, concentration series – BLA reporter cells, FRET fluorescence, artefact control for NOD2-RIPK2 interaction inhibitor project, dose response (AID 651552); assay type: functional, cell-based
# [14] = Fluorescence-based cell-based high throughput dose response assay for inhibitors of the interaction of nucleotide-binding oligomerization domain containing 2 (NOD2) and the receptor-interacting serine-threonine kinase 2 (RIPK2).; assay type: functional; conditions: Homo sapiens
# [15] = activation of miR-122 Renilla sensor silencing – cell-based, Huh7 psiCHECK-miR122, Renilla luciferase, cherry-picked, dose response (AID 651956); assay type: functional;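 further: huh7 hepatoma cells stably carrying a psiCHECK-2 miR-122 sensor plasmid; renilla luciferase signal reporting endogenous miR-122 activity after 48 h compound exposure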
# [16] = target: Endoplasmic reticulum aminopeptidase 1 (Homo sapiens, UniProt Q9NZ08); test: inhibition of human ERAP1 enzyme activity – biochemical, cherry-pick, set 2, plate reader, dose response (AID 743314)
# [17] = general mammalian cell viability loss – inhibitor set, cherry-pick, set 2, cytotoxicity control for miR-122 modulator project, dose response (AID 720697); assay type: functional, cell-based
# [18] = target: Disintegrin and metalloproteinase domain-containing protein 17 (Homo sapiens, UniProt P78536); test: exosite inhibitors of ADAM17, dose response, biochemical (AID 743260)
# [19] = inhibition of ADAM10 peptide cleavage – biochemical, FRET peptide substrate, recombinant human ADAM10, selectivity assay for ADAM17 exosite inhibitor project, dose response (AID 743259);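 further: ADAM10 enzyme cleaving a FRET peptide substrate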
# [20] = A Cell-Based Confirmatory Screen for Compounds that Inhibit VEEV, TC-83 (8).; assay type: functional
# [21] = target: Mu-type opioid receptor (Homo sapiens, UniProt P35372); assay type: functional, cell-based;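 further: U2OS cells with beta-arrestin recruitment to OPRM1 by beta-gal complementation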
# [22] = target: 5-hydroxytryptamine receptor 2A (Mus musculus, UniProt P35363); assay type: functional, cell-based;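 further: CHO-K1 cells with tagged receptor and beta-arrestin; agonist potency measured as compound-induced activation of the receptor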
# [23] = OVCAR8 cell viability loss – plate reader, dry powder samples, PAX8 project, dose response (AID 743197); assay type: functional, cell-based; conditions: OVCAR-8
# [24] = IGROV1 cell killing – plate reader, dry powder samples, PAX8 inhibitor project, dose response (AID 743043); assay type: functional, cell-based; conditions: IGROV-1
# [25] = mouse fibroblast viability loss – cell-based, cherry-pick samples, set 2, cytotoxicity control for T. cruzi growth inhibitor project, dose response (AID 651817); assay type: functional; conditions: NIH3T3
# [26] = Late stage assay provider results from the probe development effort to identify selective inhibitors of heat shock protein 90 (HSP90): Absorbance-based cell proliferation assay in MCF7 cells.; assay type: functional
# [27] = Late stage assay provider results from the probe development effort to identify selective inhibitors of heat shock protein 90 (HSP90): Absorbance-based cell proliferation assay in SKBR3 cells.; assay type: functional; conditions: SK-BR-3
# [28] = target: T2, Rac GTPase-activating protein 1 (Homo sapiens, UniProt Q9H0H5); test: blockers of MgcRacGAP-driven Rac1 GTP hydrolysis – biochemical, ADP Hunter fluorescence, primary and confirmatory, confirmation (AID 624330); assay type: functional
# T2 sequence (Q9H0H5 whole entry): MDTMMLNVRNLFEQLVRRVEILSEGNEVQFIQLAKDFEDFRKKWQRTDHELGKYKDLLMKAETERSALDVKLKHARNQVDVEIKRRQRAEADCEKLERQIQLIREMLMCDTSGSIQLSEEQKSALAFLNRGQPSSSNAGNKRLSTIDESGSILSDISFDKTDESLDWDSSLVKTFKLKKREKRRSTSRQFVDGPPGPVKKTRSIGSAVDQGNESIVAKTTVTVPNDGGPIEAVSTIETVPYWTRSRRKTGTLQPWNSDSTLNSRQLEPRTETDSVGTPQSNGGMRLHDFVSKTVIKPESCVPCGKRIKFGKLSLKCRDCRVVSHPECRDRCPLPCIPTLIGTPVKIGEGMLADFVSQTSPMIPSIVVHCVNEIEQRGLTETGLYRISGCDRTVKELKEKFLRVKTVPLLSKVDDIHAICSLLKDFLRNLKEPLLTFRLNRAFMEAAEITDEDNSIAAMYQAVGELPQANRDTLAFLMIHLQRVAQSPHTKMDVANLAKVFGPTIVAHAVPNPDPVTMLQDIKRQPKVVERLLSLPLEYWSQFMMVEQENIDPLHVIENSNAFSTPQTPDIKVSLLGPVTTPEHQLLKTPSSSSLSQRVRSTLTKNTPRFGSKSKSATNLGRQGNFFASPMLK
# [29] = target: T3, High affinity choline transporter 1 (Homo sapiens, UniProt Q9GZV3); test: human choline transporter blockers, potency – cell-based, 5-point CRC, membrane potential dye, dose response (AID 504840); assay type: functional
# T3 sequence (Q9GZV3 whole entry): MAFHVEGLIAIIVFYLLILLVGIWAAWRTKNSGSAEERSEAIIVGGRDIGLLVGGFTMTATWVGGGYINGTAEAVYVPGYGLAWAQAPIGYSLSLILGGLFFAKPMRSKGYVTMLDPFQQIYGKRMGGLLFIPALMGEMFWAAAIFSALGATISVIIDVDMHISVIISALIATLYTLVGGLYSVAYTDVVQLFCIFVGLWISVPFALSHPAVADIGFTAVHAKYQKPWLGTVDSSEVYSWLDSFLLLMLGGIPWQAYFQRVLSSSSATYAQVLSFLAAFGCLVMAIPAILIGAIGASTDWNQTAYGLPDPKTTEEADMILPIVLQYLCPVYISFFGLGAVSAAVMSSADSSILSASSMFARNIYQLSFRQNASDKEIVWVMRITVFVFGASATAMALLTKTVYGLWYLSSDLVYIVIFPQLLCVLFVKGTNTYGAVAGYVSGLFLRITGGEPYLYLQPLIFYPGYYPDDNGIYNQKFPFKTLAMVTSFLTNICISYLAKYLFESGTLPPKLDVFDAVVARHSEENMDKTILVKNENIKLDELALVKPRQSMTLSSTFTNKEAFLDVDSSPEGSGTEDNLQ
# [30] = viability loss in HeLa cells – cytotoxicity control for MgcRacGAP inhibitor project, dose response (AID 624300); assay type: functional
# [31] = target: Large T antigen (Simian virus 40, UniProt P03070); assay type: functional, Betapolyomavirus macacae;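 further: Confirmatory-stage PubChem screen for compounds that inhibit SV40 T antigen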
# Chain of Large T antigen (P03070 whole entry): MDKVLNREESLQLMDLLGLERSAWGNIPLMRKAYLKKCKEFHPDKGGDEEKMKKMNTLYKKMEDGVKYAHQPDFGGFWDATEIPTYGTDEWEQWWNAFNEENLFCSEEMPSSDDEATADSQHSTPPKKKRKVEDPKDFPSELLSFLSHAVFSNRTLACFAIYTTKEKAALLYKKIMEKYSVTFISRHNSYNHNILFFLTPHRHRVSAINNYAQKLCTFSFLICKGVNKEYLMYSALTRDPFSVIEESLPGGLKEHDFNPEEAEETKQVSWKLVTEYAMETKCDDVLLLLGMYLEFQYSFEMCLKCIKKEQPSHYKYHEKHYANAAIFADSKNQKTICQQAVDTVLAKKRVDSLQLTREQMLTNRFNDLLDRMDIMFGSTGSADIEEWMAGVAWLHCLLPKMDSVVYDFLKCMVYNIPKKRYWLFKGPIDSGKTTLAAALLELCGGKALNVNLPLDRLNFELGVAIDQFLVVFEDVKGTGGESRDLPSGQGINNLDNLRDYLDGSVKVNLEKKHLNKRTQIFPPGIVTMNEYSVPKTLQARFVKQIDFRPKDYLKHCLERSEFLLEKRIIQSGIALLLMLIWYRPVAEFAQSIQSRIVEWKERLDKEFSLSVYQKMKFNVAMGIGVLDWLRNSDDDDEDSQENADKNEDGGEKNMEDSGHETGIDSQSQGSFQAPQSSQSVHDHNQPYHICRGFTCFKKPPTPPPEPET
# Chain of Paired box protein Pax-8 (Q06710 whole entry): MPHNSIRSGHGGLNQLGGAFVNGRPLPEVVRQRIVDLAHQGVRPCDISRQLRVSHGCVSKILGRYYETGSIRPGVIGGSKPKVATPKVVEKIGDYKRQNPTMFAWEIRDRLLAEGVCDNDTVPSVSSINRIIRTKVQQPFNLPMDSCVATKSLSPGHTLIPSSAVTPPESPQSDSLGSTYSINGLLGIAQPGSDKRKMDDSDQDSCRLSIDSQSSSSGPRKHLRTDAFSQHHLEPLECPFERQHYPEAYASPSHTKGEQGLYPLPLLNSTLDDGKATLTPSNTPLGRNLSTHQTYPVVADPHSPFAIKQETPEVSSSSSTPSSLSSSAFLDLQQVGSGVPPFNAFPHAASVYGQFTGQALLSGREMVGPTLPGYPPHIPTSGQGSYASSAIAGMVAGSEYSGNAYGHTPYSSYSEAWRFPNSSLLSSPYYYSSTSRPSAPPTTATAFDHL
# Chain of Cytochrome P450 2D6 (P10635 whole entry): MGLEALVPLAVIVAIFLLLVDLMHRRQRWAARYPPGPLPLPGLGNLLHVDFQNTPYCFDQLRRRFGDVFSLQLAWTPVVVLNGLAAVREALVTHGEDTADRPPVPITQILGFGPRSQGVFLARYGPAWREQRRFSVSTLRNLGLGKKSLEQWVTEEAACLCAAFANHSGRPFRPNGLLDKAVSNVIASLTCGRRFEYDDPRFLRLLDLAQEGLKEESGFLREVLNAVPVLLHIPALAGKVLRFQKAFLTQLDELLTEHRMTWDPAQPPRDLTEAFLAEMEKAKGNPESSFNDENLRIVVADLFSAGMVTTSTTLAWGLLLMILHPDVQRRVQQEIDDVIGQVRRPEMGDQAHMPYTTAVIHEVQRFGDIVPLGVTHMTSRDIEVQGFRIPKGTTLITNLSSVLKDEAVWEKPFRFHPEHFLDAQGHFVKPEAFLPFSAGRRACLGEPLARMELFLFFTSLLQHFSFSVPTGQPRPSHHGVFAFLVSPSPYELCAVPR
# Chain of DNA dC->dU-editing enzyme APOBEC-3G (Q9HC16 whole entry): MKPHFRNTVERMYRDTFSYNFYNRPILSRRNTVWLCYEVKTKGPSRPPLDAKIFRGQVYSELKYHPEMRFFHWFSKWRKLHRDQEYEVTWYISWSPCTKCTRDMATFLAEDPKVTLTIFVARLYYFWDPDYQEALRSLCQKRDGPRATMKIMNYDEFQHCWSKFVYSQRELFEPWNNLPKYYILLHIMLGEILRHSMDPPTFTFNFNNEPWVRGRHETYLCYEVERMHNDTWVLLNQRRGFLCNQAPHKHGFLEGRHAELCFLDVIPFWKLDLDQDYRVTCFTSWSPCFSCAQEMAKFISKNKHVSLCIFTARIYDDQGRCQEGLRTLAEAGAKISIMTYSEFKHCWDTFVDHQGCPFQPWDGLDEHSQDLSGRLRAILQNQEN
# Chain of Glucose-6-phosphate 1-dehydrogenase (P11413 whole entry): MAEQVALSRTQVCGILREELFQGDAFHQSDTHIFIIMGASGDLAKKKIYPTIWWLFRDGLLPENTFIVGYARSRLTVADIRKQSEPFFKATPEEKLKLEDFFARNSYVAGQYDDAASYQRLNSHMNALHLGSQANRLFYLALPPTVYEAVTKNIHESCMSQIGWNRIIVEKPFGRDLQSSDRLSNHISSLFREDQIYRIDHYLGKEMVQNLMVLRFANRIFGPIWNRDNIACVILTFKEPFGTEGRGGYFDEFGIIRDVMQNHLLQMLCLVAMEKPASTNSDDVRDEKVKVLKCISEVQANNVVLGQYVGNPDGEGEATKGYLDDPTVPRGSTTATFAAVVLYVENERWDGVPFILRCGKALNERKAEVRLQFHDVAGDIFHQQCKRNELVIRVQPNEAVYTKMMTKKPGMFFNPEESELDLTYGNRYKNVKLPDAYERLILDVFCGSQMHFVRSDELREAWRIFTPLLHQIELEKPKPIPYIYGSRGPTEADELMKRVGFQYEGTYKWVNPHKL
# Chain of Endoplasmic reticulum aminopeptidase 1 (Q9NZ08 whole entry): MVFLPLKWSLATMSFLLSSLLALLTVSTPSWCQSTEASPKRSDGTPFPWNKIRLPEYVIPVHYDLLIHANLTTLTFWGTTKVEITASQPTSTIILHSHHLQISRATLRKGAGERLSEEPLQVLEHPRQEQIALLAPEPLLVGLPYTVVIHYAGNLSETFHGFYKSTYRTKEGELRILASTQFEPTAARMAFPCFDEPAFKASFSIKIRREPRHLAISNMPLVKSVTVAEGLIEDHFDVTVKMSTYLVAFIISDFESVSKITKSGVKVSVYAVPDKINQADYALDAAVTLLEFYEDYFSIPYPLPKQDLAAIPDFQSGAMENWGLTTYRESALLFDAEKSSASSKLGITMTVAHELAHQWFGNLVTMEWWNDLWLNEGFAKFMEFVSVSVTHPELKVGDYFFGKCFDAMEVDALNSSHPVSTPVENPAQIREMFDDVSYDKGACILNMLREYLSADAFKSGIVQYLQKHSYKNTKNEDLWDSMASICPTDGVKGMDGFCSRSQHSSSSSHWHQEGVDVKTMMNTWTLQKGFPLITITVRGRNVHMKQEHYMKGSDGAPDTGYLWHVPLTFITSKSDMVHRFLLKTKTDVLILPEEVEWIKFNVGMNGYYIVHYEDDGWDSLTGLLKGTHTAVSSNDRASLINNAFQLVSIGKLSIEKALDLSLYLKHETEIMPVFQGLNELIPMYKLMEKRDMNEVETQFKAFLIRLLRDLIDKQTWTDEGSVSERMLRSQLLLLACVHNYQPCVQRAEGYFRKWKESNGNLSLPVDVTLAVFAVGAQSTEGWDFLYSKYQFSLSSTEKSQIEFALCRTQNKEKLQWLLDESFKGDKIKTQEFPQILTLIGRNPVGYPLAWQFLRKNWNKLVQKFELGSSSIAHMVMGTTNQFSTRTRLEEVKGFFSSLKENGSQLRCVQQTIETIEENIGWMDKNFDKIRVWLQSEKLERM
# Chain of Beta Lactamase (Q932Y6 whole entry, the tested form may be a part): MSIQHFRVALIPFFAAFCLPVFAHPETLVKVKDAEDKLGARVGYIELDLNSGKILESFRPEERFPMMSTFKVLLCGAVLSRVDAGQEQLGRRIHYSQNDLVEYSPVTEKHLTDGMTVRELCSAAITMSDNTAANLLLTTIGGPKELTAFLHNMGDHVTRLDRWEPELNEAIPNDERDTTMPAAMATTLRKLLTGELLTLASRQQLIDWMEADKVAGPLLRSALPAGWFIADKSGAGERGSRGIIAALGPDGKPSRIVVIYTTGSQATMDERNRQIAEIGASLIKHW
# Chain of 5-hydroxytryptamine receptor 2A (P35363 whole entry): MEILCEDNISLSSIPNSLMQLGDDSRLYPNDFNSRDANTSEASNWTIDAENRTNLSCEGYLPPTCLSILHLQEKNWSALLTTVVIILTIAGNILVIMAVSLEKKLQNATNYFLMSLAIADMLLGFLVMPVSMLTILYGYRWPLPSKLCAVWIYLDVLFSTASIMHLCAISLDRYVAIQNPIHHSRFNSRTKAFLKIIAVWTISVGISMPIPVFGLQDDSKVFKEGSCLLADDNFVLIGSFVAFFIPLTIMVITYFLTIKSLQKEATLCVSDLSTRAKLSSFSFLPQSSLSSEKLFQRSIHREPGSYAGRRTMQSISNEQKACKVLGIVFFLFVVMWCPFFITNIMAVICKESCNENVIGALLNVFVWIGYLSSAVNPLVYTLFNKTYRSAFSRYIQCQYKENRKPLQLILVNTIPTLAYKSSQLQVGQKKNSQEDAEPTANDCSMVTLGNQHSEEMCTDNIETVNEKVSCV
# Chain of DNA dC->dU-editing enzyme APOBEC-3A (P31941 whole entry): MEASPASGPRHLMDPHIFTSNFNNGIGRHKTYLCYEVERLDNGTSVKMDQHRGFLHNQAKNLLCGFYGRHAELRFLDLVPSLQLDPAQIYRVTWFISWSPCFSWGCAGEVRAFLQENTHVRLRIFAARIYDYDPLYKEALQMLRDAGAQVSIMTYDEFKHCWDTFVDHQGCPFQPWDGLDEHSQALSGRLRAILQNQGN
# Chain of Mu-type opioid receptor (P35372 whole entry): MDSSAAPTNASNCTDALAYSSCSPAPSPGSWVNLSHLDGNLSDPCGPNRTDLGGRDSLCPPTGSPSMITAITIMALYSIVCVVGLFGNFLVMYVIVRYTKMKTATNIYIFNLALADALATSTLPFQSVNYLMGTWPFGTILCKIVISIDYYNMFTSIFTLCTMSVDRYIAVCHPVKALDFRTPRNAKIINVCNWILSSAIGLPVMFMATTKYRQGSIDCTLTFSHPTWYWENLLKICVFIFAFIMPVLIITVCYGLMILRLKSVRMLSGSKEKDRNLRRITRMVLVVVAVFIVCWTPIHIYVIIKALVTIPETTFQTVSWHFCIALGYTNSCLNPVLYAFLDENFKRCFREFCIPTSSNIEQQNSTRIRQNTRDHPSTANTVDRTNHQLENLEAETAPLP
smiles,measurement,setting,value
O=C(CSCc1ccccc1Cl)NNC(=S)Nc1ccccc1,IC50,[1],> 122 µM (inactive)
same,AC50,[2],14.1 µM (inconclusive)
same,AC50,[3],15.8 µM (inconclusive)
CCCNC(=O)c1cc2c(c(-c3cccc(-c4cccc(F)c4)c3)n1)[C@H](CCO)N([S@@+]([O-])C(C)(C)C)C2,AbsAC35,[4],250.06 µM
CS(=O)(=O)Nc1ccc2c(c1)[C@@H]1C[C@H](CC(=O)NCc3ccc(Oc4ccccc4)cc3)O[C@@H](CO)[C@@H]1O2,AC50,[5],20.7 µM (active)
same,AC50,[6],39.7 µM (active)
same,AC50,[7],6.4 µM (active)
Cc1cc(C)c2c(=O)n(CC(=O)Nc3ccc(Cl)cc3)sc2n1,EC50,[8],> 30 µM (not active)
same,IC50,[9],20.7 µM (inactive)
same,EC50,[10],1.39 µM (active)
same,IC50,[11],> 100 µM (inactive)
same,IC50,[12],3.35 µM (active)
same,IC50,[13],23.6 µM (inactive)
same,IC50,[14],9.56 µM (active)
CCCNC(=O)C[C@H]1CC[C@@H]2[C@@H](COc3ccc(NC(=O)c4ccc(C(F)(F)F)cc4)cc3C(=O)N2C)O1,AC50,[15],26.9 µM (active)
COc1ccc2c3c([nH]c2c1)[C@H](CO)N(Cc1cc(F)ccc1F)CC31CN(C)C1,AC50,[16],6.53 µM (active)
O=C(Nc1ccccc1)N1C[C@@H]2[C@H](c3ccccc31)[C@H](CO)N2Cc1cocn1,AC50,[17],9.02 µM (active)
O=C(C[C@H]1C/C=C\CC[C@@H](Cc2ccc(F)cc2)C(=O)O[C@@H](c2ccccc2)CNC1=O)N[C@H](CO)Cc1ccccc1,IC50,[18],> 69.5 µM (inactive)
same,IC50,[19],> 69.5 µM (inactive)
CCN1CCN(Cc2nc3ccc(C#N)cc3c(=O)n2-c2ccccc2)CC1,IC50,[20],1.14 µM (active)
O=C(CSc1ccc2ccccc2c1)NCCc1ccc(O)c(O)c1,EC50,[21],92.5 µM (inactive)
same,EC50,[22],2.67 µM (active)
C[C@@H]1CN([C@H](C)CO)C(=O)c2cc(NS(=O)(=O)c3ccc(Cl)cc3)ccc2O[C@@H](C)CCCCO[C@H]1CN(C)C(=O)Nc1ccc(C(F)(F)F)cc1,AC50,[23],29.6 µM (active)
same,AC50,[5],17.9 µM (active)
same,AC50,[7],2.86 µM (active)
same,AC50,[24],35.2 µM (active)
C[C@H]1CN([C@@H](C)CO)C(=O)c2cccc(NC(=O)NC3CCCCC3)c2O[C@H]1CN(C)S(=O)(=O)c1ccc(F)cc1,AC50,[25],28.7 µM (active)
COC(=O)CCCCOc1ccc2cc(Br)c(=O)oc2c1,IC50,[26],> 100 µM (inactive)
same,IC50,[27],> 100 µM (inactive)
COc1cc(/C=C2/C(=O)ON=C2c2ccccc2)ccc1O,IC50,[28],100 µM (active)
same,IC50,[29],9.6 µM (active)
same,CC50,[30],100 µM (active)
same,IC50,[31],9.98 µM (active)
